The text below walks through data of patent publication US20140271604A1, “HDAC Inhibitor Polymorphic Forms and Methods of Use” (priority 2013, published 2014).

“Also recorded” adds a separate entry of the source.

Data set [1] is described as follows: Storage of samples under ambient conditions, form assigned by XRPD. In kind it is physicochemical.
Data set [2] in a line: Stability study in climate chamber (48-72 h, 40° C./75% RH), form assigned by XRPD. The note with it: for XRPD Form c: form assigned after the stability studies / XRPD Form b: form assigned after the stability studies: at 40° C./75% RH; for XRPD Form b: form assigned after the stability studies: samples from anti-solvent addition, label = form before stability; for Stability after storage in a climate chamber / XRPD pattern following storage exposure in the climate chamber: 48 to 72 hours at 40 degrees centigrade and 75% relative humidity.
Method: Solubility assessment experiments were carried out in a variety of solvents followed by storage in a climate chamber for 48 to 72 hours at 40 degrees centigrade and 75% relative humidity.

Where [3] appears, read: 1-1.5 weeks ambient, slurry conversion, Table 9, label = form after slurry.
[4] abbreviates: 48-72 H, samples from slurry conversion, Table 9, label = form after slurry.
The mark [5] stands for this setting: 1-1.5 weeks ambient, cooling-evaporative crystallization, Table 6, label = form after recrystallization.
[6] abbreviates: 48-72 H, samples from cooling-evaporative crystallization, Table 6, label = form after recrystallization.
Setting [7] is: 1.5-2 weeks ambient, solvent-drop grinding, Table 8, label = form after grinding.
The mark [8] stands for this setting: 46-72 H, samples from solvent-drop grinding, Table 8, label = form after grinding.
[9] abbreviates: 1-1.5 weeks ambient, cooling-evaporative crystallization, Table 7, label = form after recrystallization.
The mark [10] stands for this setting: 48-72 H, samples from cooling-evaporative crystallization, Table 7, label = form after recrystallization.

Regarding `CC(C)C(C(=O)Nc1ccc(C(=O)NO)cc1)c1ccccc1` (stereo not shown) [Form A7 + Am], in data set [1] (setting [3]), the “XRPD Form b: form assigned after storage under ambient conditions” value (“XRPD Form b: form assigned after storage” for short) is given as “Form A3 + Am*”. The “XRPD Form c: form assigned after the stability studies” value (shortened to “XRPD Form c: form assigned”) in data set [2] (setting [4]) is reported as “Form A + Am*”.

Take `CC(C)[C@H](C(=O)Nc1ccc(C(=O)NO)cc1)c1ccccc1` [Wet sample]: in data set [1] (setting [5]), the “XRPD Form b: form assigned after storage” value is “Form D1_wet**”. Further, in data set [2] (48-72 H, Table 3), the “XRPD Form b: form assigned after the stability studies” value is recorded as “Form A + Am*; also recorded: Form W + Am*”. The “XRPD Form c: form assigned” value in data set [2] (setting [6]) is given as “Form A”.

Turning to `CC(C)C(C(=O)Nc1ccc(C(=O)NO)cc1)c1ccccc1` (stereo not shown) [Form W + Am], the “XRPD Form b: form assigned after the stability studies” value in data set [2] (48-72 H, Table 3) is “Form A + Form”.

Turning to `CC(C)C(C(=O)Nc1ccc(C(=O)NO)cc1)c1ccccc1` (stereo not shown) [Form A + Form V], in data set [1] (setting [7]), the “XRPD Form b: form assigned after storage” value is “Form A”. Moreover, the “XRPD Form c: form assigned” value in data set [2] (setting [8]) is listed as “Form A”.

In the case of `CC(C)[C@H](C(=O)Nc1ccc(C(=O)NO)cc1)c1ccccc1` [Form L1, (S)—N-hydroxy-4-(3-methyl-2-phenylbutanamido)benzamide], the “XRPD Form b: form assigned after storage” value in data set [1] (setting [5]) and in data set [1] (setting [9]) was “Form L1” throughout. The “XRPD Form c: form assigned” value in data set [2] (setting [6]) and in data set [2] (setting [10]) was “Form L1” each time. Also, in data set [2], the “Stability after storage in a climate chamber” value (shortened to “Stability after storage”) is recorded as “exhibited a particular degree of stability”.

With `CC(C)[C@H](C(=O)Nc1ccc(C(=O)NO)cc1)c1ccccc1` [Form A4, (S)—N-hydroxy-4-(3-methyl-2-phenylbutanamido)benzamide], the “XRPD Form b: form assigned after storage” value is given as “Form B1_wet**” in data set [1] (1-1.5 weeks ambient, cooling-evaporative crystallization, Table 7, label = form after recrystallization, slurry in cyclohexane/cyclohexanone) and “Form R” in data set [1] (1-1.5 weeks ambient, cooling-evaporative crystallization, Table 7, label = form after recrystallization, slurry in cyclohexanone/tetrahydrofuran). Further, in data set [2] (setting [10]), the “XRPD Form c: form assigned” value was “Form A”.

Consider `CC(C)[C@H](C(=O)Nc1ccc(C(=O)NO)cc1)c1ccccc1` [Form A_min + Form T], for which the “XRPD Form c: form assigned” value in data set [2] (setting [8]) was “Form A5a”.

As for `CC(C)[C@H](C(=O)Nc1ccc(C(=O)NO)cc1)c1ccccc1` [Form J1, (S)—N-hydroxy-4-(3-methyl-2-phenylbutanamido)benzamide], the “XRPD Form b: form assigned after storage” value in data set [1] (1-1.5 weeks ambient, cooling-evaporative crystallization, Table 7, label = form after recrystallization, slurry in dimethoxyethane/methanol) is recorded as “Form J2”; in data set [1] (setting [3]), “Form J1”; in data set [1] (setting [7]) it was “Form J1”. The “XRPD Form c: form assigned” value in data set [2] (setting [4]) is reported as “Form J1”. Moreover, the “Stability after storage” value in data set [2] was “exhibited a particular degree of stability”. Besides, the “XRPD pattern following storage exposure in the climate chamber” value (shortened to “XRPD pattern following storage exposure”) in data set [2] is reported as “remained unchanged”.

As for `CC(C)[C@H](C(=O)Nc1ccc(C(=O)NO)cc1)c1ccccc1` [Form H2, (S)—N-hydroxy-4-(3-methyl-2-phenylbutanamido)benzamide], in data set [1] (setting [7]), the “XRPD Form b: form assigned after storage” value is on record as “Form A2”. The “XRPD Form c: form assigned” value in data set [2] (setting [8]) is “Form A”.

As to `CC(C)[C@H](C(=O)Nc1ccc(C(=O)NO)cc1)c1ccccc1` [Form F2, (S)—N-hydroxy-4-(3-methyl-2-phenylbutanamido)benzamide], in data set [1] (setting [9]), the “XRPD Form b: form assigned after storage” value was “Form A3”. In data set [2] (setting [10]), the “XRPD Form c: form assigned” value is “Form A”.

In the case of `CC(C)[C@H](C(=O)Nc1ccc(C(=O)NO)cc1)c1ccccc1` [Form A5a, (S)—N-hydroxy-4-(3-methyl-2-phenylbutanamido)benzamide], in data set [1] (setting [7]), the “XRPD Form b: form assigned after storage” value was “Form A5a”. Further, the “XRPD Form c: form assigned” value in data set [2] (setting [8]) is “Form A5a”. In data set [2], the “Stability after storage” value was “exhibited a particular degree of stability” and the “XRPD pattern following storage exposure” value is listed as “remained unchanged”.

Take `CC(C)[C@H](C(=O)Nc1ccc(C(=O)NO)cc1)c1ccccc1` [Form M1, (S)—N-hydroxy-4-(3-methyl-2-phenylbutanamido)benzamide]: the “XRPD Form b: form assigned after storage” value in data set [1] (setting [9]) was “Form M1”. Besides, the “XRPD Form c: form assigned” value in data set [2] (setting [10]) was “Form M1”. Further, in data set [2], the “Stability after storage” value is “exhibited a particular degree of stability” and the “XRPD pattern following storage exposure” value is recorded as “remained unchanged”.

As for `CC(C)[C@H](C(=O)Nc1ccc(C(=O)NO)cc1)c1ccccc1` [Form G_gel, (S)—N-hydroxy-4-(3-methyl-2-phenylbutanamido)benzamide], the “XRPD Form b: form assigned after the stability studies” value in data set [2] (48-72 H, Table 3) is recorded as “Form A + Am*”.

Regarding `CC(C)[C@H](C(=O)Nc1ccc(C(=O)NO)cc1)c1ccccc1` [Form M2, (S)—N-hydroxy-4-(3-methyl-2-phenylbutanamido)benzamide], the “XRPD Form b: form assigned after storage” value in data set [1] (setting [9]) is given as “Form M2”. In data set [2] (setting [10]), the “XRPD Form c: form assigned” value is reported as “Form M2”. In addition, in data set [2], the “Stability after storage” value is recorded as “exhibited a particular degree of stability” and the “XRPD pattern following storage exposure” value was “remained unchanged”.

`CC(C)[C@H](C(=O)Nc1ccc(C(=O)NO)cc1)c1ccccc1` [Form X_gel, (S)—N-hydroxy-4-(3-methyl-2-phenylbutanamido)benzamide]: the “XRPD Form b: form assigned after storage” value in data set [1] (setting [5]) was “Form U2 + Am*”. Moreover, in data set [2] (setting [6]), the “XRPD Form c: form assigned” value is on record as “Form A_wet**”.

In the case of `CC(C)[C@H](C(=O)Nc1ccc(C(=O)NO)cc1)c1ccccc1` [Form F4_wet, (S)—N-hydroxy-4-(3-methyl-2-phenylbutanamido)benzamide], in data set [1] (setting [3]), the “XRPD Form b: form assigned after storage” value was “Form A + Am*”. In addition, the “XRPD Form c: form assigned” value in data set [2] (setting [4]) is listed as “Form A + Am*”.

Consider `CC(C)C(C(=O)Nc1ccc(C(=O)NO)cc1)c1ccccc1` (stereo not shown) [Form A3 + Am], for which, in data set [2] (setting [4]), the “XRPD Form c: form assigned” value is reported as “Form A”.

For the molecule `CC(C)[C@H](C(=O)Nc1ccc(C(=O)NO)cc1)c1ccccc1` [Form F1, (S)—N-hydroxy-4-(3-methyl-2-phenylbutanamido)benzamide], in data set [1] (setting [3]), the “XRPD Form b: form assigned after storage” value is “Form A_wet**”. Also, the “XRPD Form b: form assigned after the stability studies” value is “Form A + Am*” in data set [2] (48-72 H, Table 3) and “Form A” in data set [2] (48-72 H, Table 5). The “XRPD Form c: form assigned” value in data set [2] (setting [10]) and in data set [2] (setting [4]) was “Form A” in each case.

Take `CC(C)C(C(=O)Nc1ccc(C(=O)NO)cc1)c1ccccc1` (stereo not shown) [Form A2 + Am]: the “XRPD Form b: form assigned after storage” value in data set [1] (setting [5]) was “Form U1 + Am”. The “XRPD Form c: form assigned” value in data set [2] (setting [6]) is reported as “Form Z_wet**”.

For `CC(C)C(C(=O)Nc1ccc(C(=O)NO)cc1)c1ccccc1` (stereo not shown) [Form B1 + Form F5], the “XRPD Form b: form assigned after the stability studies” value in data set [2] (48-72 H, Table 3) is “Form A”.

For the molecule `CC(C)[C@H](C(=O)Nc1ccc(C(=O)NO)cc1)c1ccccc1` [Form Z_wet], in data set [1] (setting [5]), the “XRPD Form b: form assigned after storage” value is “Form U1 + Am*”. Moreover, the “XRPD Form c: form assigned” value in data set [2] (setting [6]) is “Form Z_wet**”.

In the case of `CC(C)C(C(=O)Nc1ccc(C(=O)NO)cc1)c1ccccc1` (stereo not shown) [Form S + Am], the “XRPD Form c: form assigned” value in data set [2] (setting [10]) is reported as “Form A_plus”.

Consider `CC(C)[C@H](C(=O)Nc1ccc(C(=O)NO)cc1)c1ccccc1` [Form K_wet], for which, in data set [1] (setting [5]), the “XRPD Form b: form assigned after storage” value is reported as “Form A”. Further, in data set [2] (setting [6]), the “XRPD Form c: form assigned” value is given as “Form A”.

For `CC(C)[C@H](C(=O)Nc1ccc(C(=O)NO)cc1)c1ccccc1` [Form A2, (S)—N-hydroxy-4-(3-methyl-2-phenylbutanamido)benzamide], in data set [2] (48-72 H, Table 3), the “XRPD Form b: form assigned after the stability studies” value is “Form A”.

Consider `CC(C)[C@H](C(=O)Nc1ccc(C(=O)NO)cc1)c1ccccc1` [Form R, (S)—N-hydroxy-4-(3-methyl-2-phenylbutanamido)benzamide], for which the “XRPD Form b: form assigned after storage” value in data set [1] (setting [9]) was “Form R”. For the same molecule, in data set [2] (setting [10]), the “XRPD Form c: form assigned” value is recorded as “Form A”.

`CC(C)[C@H](C(=O)Nc1ccc(C(=O)NO)cc1)c1ccccc1` [Form L2, (S)—N-hydroxy-4-(3-methyl-2-phenylbutanamido)benzamide]: in data set [2], the “Stability after storage” value is reported as “exhibited a particular degree of stability”.

With `CC(C)C(C(=O)Nc1ccc(C(=O)NO)cc1)c1ccccc1` (stereo not shown) [Form Y + Am], in data set [1] (setting [3]), the “XRPD Form b: form assigned after storage” value is listed as “Form M2 + Am*”. Also, in data set [2] (setting [4]), the “XRPD Form c: form assigned” value was “Form M2”.

`CC(C)C(C(=O)Nc1ccc(C(=O)NO)cc1)c1ccccc1` (stereo not shown) [Form A + Form H1]: the “XRPD Form b: form assigned after the stability studies” value in data set [2] (48-72 H, Table 3) is “Form A”.

In the case of `CC(C)[C@H](C(=O)Nc1ccc(C(=O)NO)cc1)c1ccccc1` [Form T_wet, (S)—N-hydroxy-4-(3-methyl-2-phenylbutanamido)benzamide], the “XRPD Form b: form assigned after the stability studies” value in data set [2] (48-72 H, Table 5) is listed as “Form A”.

In the case of `CC(C)C(C(=O)Nc1ccc(C(=O)NO)cc1)c1ccccc1` (stereo not shown) [Form A + Form J1], the “XRPD Form c: form assigned” value in data set [2] (setting [10]) is “Form J1”.

In the case of `CC(C)[C@H](C(=O)Nc1ccc(C(=O)NO)cc1)c1ccccc1` [Form A_minus, (S)—N-hydroxy-4-(3-methyl-2-phenylbutanamido)benzamide], the “XRPD Form b: form assigned after the stability studies” value in data set [2] (48-72 H, Table 3) is on record as “Form A_minus”. In addition, the “Stability after storage” value in data set [2] is “exhibited a particular degree of stability”.

For `CC(C)[C@H](C(=O)Nc1ccc(C(=O)NO)cc1)c1ccccc1` [Form F3, (S)—N-hydroxy-4-(3-methyl-2-phenylbutanamido)benzamide], the “XRPD Form c: form assigned” value in data set [2] (setting [10]) is listed as “Form A”.
